According to PubChem BioAssay (NCI):
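Interpolation was linear, between the two tested concentrations surrounding the appropriate level; five concentrations were tested over 48 hours in 96-well plates. GI50 is the concentration that inhibits growth by half. At the TGI there is no net growth.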

Key:
Assay in all cases: NCI anticancer screen, dose series, 48 h
OVCAR-3 ovarian = tested on: OVCAR-3 ovarian
LOX IMVI melanoma = tested on: LOX IMVI melanoma
UO-31 renal = tested on: UO-31 renal
UACC-62 melanoma = tested on: UACC-62 melanoma
CAKI-1 renal = tested on: CAKI-1 renal
HT29 colon = tested on: HT29 colon
HOP-62 NSCLC = tested on: HOP-62 NSCLC
COLO 205 colon = tested on: COLO 205 colon
NCI-H23 lung = tested on: NCI-H23 lung
OVCAR-4 ovarian = tested on: OVCAR-4 ovarian
HCT-116 colon = tested on: HCT-116 colon
786-0 renal = tested on: 786-0 renal
TK-10 renal = tested on: TK-10 renal
DU-145 prostate = tested on: DU-145 prostate
SK-MEL-5 melanoma = tested on: SK-MEL-5 melanoma
NCI-H226 lung = tested on: NCI-H226 lung
SF-268 CNS = tested on: SF-268 CNS
CCRF-CEM leukemia = tested on: CCRF-CEM leukemia
PC-3 prostate = tested on: PC-3 prostate
M14 melanoma = tested on: M14 melanoma
HL-60(TB) leukemia = tested on: HL-60(TB) leukemia
K-562 leukemia = tested on: K-562 leukemia
SR leukemia = tested on: SR leukemia
IGROV1 ovarian = tested on: IGROV1 ovarian
HCT-15 colon = tested on: HCT-15 colon
UACC-257 melanoma = tested on: UACC-257 melanoma
MDA-MB-435 = tested on: MDA-MB-435
SW-620 colon = tested on: SW-620 colon
OVCAR-5 ovarian = tested on: OVCAR-5 ovarian
SF-295 CNS = tested on: SF-295 CNS
A549 NSCLC = tested on: A549 NSCLC
MCF7 breast = tested on: MCF7 breast
KM12 colon = tested on: KM12 colon
MALME-3M melanoma = tested on: MALME-3M melanoma
SK-MEL-28 melanoma = tested on: SK-MEL-28 melanoma
MDA-MB-231 breast = tested on: MDA-MB-231 breast
ACHN renal = tested on: ACHN renal
BT-549 breast = tested on: BT-549 breast
SNB-19 CNS = tested on: SNB-19 CNS
MDA-N = tested on: MDA-N
U251 CNS = tested on: U251 CNS
SK-OV-3 ovarian = tested on: SK-OV-3 ovarian
A498 renal = tested on: A498 renal
MOLT-4 leukemia = tested on: MOLT-4 leukemia
HOP-92 NSCLC = tested on: HOP-92 NSCLC
SK-MEL-2 melanoma = tested on: SK-MEL-2 melanoma
OVCAR-8 ovarian = tested on: OVCAR-8 ovarian
SNB-75 CNS = tested on: SNB-75 CNS
NCI-H522 lung = tested on: NCI-H522 lung
HCC-2998 colon = tested on: HCC-2998 colon
T-47D breast = tested on: T-47D breast
SF-539 CNS = tested on: SF-539 CNS
RXF 393 renal = tested on: RXF 393 renal
EKVX NSCLC = tested on: EKVX NSCLC
NCI-H460 lung = tested on: NCI-H460 lung
SN12C renal = tested on: SN12C renal
NCI/ADR-RES ovarian = tested on: NCI/ADR-RES ovarian
HS 578T breast = tested on: HS 578T breast

O=[N+]([O-])c1ccc(C=Cc2ccccc2)cc1.[C-]#[O+].[C-]#[O+].[C-]#[O+].[Cr]
GI50 (OVCAR-3 ovarian): 21.2 µM | TGI (OVCAR-3 ovarian): > 100 µM | GI50 (LOX IMVI melanoma): 31.3 µM | TGI (LOX IMVI melanoma): > 100 µM | GI50 (UO-31 renal): 6.3 µM | TGI (UO-31 renal): > 100 µM | GI50 (UACC-62 melanoma): 3.01 µM | TGI (UACC-62 melanoma): 46.9 µM | GI50 (CAKI-1 renal): 11.9 µM | TGI (CAKI-1 renal): > 100 µM | GI50 (HT29 colon): 29.5 µM | TGI (HT29 colon): > 100 µM | GI50 (HOP-62 NSCLC): > 100 µM | TGI (HOP-62 NSCLC): > 100 µM | GI50 (COLO 205 colon): 23.9 µM | TGI (COLO 205 colon): > 100 µM | GI50 (NCI-H23 lung): 20.9 µM | TGI (NCI-H23 lung): > 100 µM | GI50 (OVCAR-4 ovarian): 8.93 µM | TGI (OVCAR-4 ovarian): > 100 µM | GI50 (HCT-116 colon): 14.8 µM | TGI (HCT-116 colon): > 100 µM | GI50 (786-0 renal): 3.41 µM | TGI (786-0 renal): > 100 µM | GI50 (TK-10 renal): 12 µM | TGI (TK-10 renal): > 100 µM | GI50 (DU-145 prostate): 24.3 µM | TGI (DU-145 prostate): > 100 µM | GI50 (SK-MEL-5 melanoma): 4.68 µM | TGI (SK-MEL-5 melanoma): 29.2 µM | GI50 (NCI-H226 lung): 27.8 µM | TGI (NCI-H226 lung): > 100 µM | GI50 (SF-268 CNS): 32 µM | TGI (SF-268 CNS): > 100 µM | GI50 (CCRF-CEM leukemia): 2.72 µM | TGI (CCRF-CEM leukemia): > 100 µM | GI50 (PC-3 prostate): 43.3 µM | TGI (PC-3 prostate): > 100 µM | GI50 (M14 melanoma): 7.58 µM | TGI (M14 melanoma): > 100 µM | GI50 (HL-60(TB) leukemia): 5.2 µM | TGI (HL-60(TB) leukemia): > 100 µM | GI50 (K-562 leukemia): 8.61 µM | TGI (K-562 leukemia): > 100 µM | GI50 (SR leukemia): 2.49 µM | TGI (SR leukemia): > 100 µM | GI50 (IGROV1 ovarian): 6.78 µM | TGI (IGROV1 ovarian): > 100 µM | GI50 (HCT-15 colon): 43.4 µM | TGI (HCT-15 colon): > 100 µM | GI50 (UACC-257 melanoma): 44.4 µM | TGI (UACC-257 melanoma): > 100 µM | GI50 (MDA-MB-435): 4.81 µM | TGI (MDA-MB-435): > 100 µM | GI50 (SW-620 colon): 79.5 µM | TGI (SW-620 colon): > 100 µM | GI50 (OVCAR-5 ovarian): > 100 µM | TGI (OVCAR-5 ovarian): > 100 µM | GI50 (SF-295 CNS): 42.1 µM | TGI (SF-295 CNS): > 100 µM | GI50 (A549 NSCLC): 8.69 µM | TGI (A549 NSCLC): > 100 µM | GI50 (MCF7 breast): 5.63 µM | TGI (MCF7 breast): > 100 µM | GI50 (KM12 colon): 13.7 µM | TGI (KM12 colon): > 100 µM | GI50 (MALME-3M melanoma): > 100 µM | TGI (MALME-3M melanoma): > 100 µM | GI50 (SK-MEL-28 melanoma): > 100 µM | TGI (SK-MEL-28 melanoma): > 100 µM | GI50 (MDA-MB-231 breast): 46.9 µM | TGI (MDA-MB-231 breast): > 100 µM | GI50 (ACHN renal): 18.5 µM | TGI (ACHN renal): > 100 µM | GI50 (BT-549 breast): 24.1 µM | TGI (BT-549 breast): > 100 µM | GI50 (SNB-19 CNS): > 100 µM | TGI (SNB-19 CNS): > 100 µM | GI50 (MDA-N): 7.25 µM | TGI (MDA-N): > 100 µM | GI50 (U251 CNS): 36.7 µM | TGI (U251 CNS): > 100 µM | GI50 (SK-OV-3 ovarian): 22.9 µM | TGI (SK-OV-3 ovarian): > 100 µM | GI50 (A498 renal): 7.53 µM | TGI (A498 renal): > 100 µM | GI50 (MOLT-4 leukemia): 5.13 µM | TGI (MOLT-4 leukemia): > 100 µM | GI50 (HOP-92 NSCLC): 4.94 µM | TGI (HOP-92 NSCLC): > 100 µM | GI50 (SK-MEL-2 melanoma): 57.7 µM | TGI (SK-MEL-2 melanoma): > 100 µM | GI50 (OVCAR-8 ovarian): 9.77 µM | TGI (OVCAR-8 ovarian): > 100 µM | GI50 (SNB-75 CNS): 4.46 µM | TGI (SNB-75 CNS): 37.8 µM | GI50 (NCI-H522 lung): 3.85 µM | TGI (NCI-H522 lung): > 100 µM | GI50 (HCC-2998 colon): > 100 µM | TGI (HCC-2998 colon): > 100 µM | GI50 (T-47D breast): 4.19 µM | TGI (T-47D breast): > 100 µM | GI50 (SF-539 CNS): > 100 µM | TGI (SF-539 CNS): > 100 µM | GI50 (RXF 393 renal): 11.8 µM | TGI (RXF 393 renal): > 100 µM | GI50 (EKVX NSCLC): 2.93 µM | TGI (EKVX NSCLC): 30 µM | GI50 (NCI-H460 lung): 3.37 µM | TGI (NCI-H460 lung): 89.7 µM | GI50 (SN12C renal): 10.1 µM | TGI (SN12C renal): > 100 µM | GI50 (NCI/ADR-RES ovarian): 13.4 µM | TGI (NCI/ADR-RES ovarian): > 100 µM | GI50 (HS 578T breast): 62.9 µM | TGI (HS 578T breast): > 100 µM
